Source: US4442044A, “Process for preparing monoesters and diesters of N-alkyl substituted amino methyl phosphonic acid” (priority 1983, dated 1984)

What was measured:
Assay in all cases: post-emergent herbicidal activity, greenhouse
Type in all cases: in vivo
Barnyardgrass = details: 4 WAT
Summary of the method: (§1)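 Seeds or propagules sown in compacted top soil, grown 2–3 weeks in greenhouse, then sprayed with compound solution/suspension containing ~0.4% emulsifier at tabulated rates. Injury scored visually versus untreated controls at ~2 and 4 weeks after treatment, expressed as a herbicidal activity index.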

Canada Thistle = details: Table I, 4 WAT
Summary of the method: as §1

Cocklebur = details: 4 WAT
Summary of the method: as §1

Crabgrass = details: Table II, 4 WAT
Summary of the method: as §1

Downy Brome = details: 4 WAT
Summary of the method: as §1

Hemp Sesbania = details: Table II, 4 WAT, 1.12 kg/h
Summary of the method: as §1

Johnsongrass = details: Table I, 4 WAT
Summary of the method: as §1

Lambsquarters = details: 4 WAT
Summary of the method: as §1

Morningglory = details: 4 WAT
Summary of the method: as §1

Panicum Spp = details: Table II, 4 WAT
Summary of the method: as §1

Quackgrass = details: Table I, 4 WAT
Summary of the method: as §1

Rice = details: Table II, 4 WAT
Summary of the method: as §1

Smartweed = details: 4 WAT
Summary of the method: as §1

Sorghum = details: Table II, 4 WAT
Summary of the method: as §1

Soybean = details: Table II, 4 WAT
Summary of the method: as §1

Sugar Beet = details: Table II, 4 WAT
Summary of the method: as §1

Velvetleaf = details: 4 WAT
Summary of the method: as §1

Wheat = details: Table II, 4 WAT
Summary of the method: as §1

Wild Buckwheat = details: Table II, 4 WAT
Summary of the method: as §1

Yellow Nutsedge = details: Table I, 4 WAT
Summary of the method: as §1

CCOC(=O)CNCP(=O)(OCCN1CCCC1)OCCN1CCCC1 [Example 24, glycine, N-[[bis[2-(1-pyrrolidinyl)ethoxy]phosphinyl]methyl]-, ethyl ester]
post-emergent herbicidal activity index (Barnyardgrass; Table I, 5.6 kg/h): 2 (50-74% control)
post-emergent herbicidal activity index (Barnyardgrass; Table I, 11.2 kg/h): 3 (75-99% control)
post-emergent herbicidal activity index (Barnyardgrass; Table II, 1.12 kg/h): 1 (25-49% control)
post-emergent herbicidal activity index (Barnyardgrass; Table II, 5.6 kg/h): 3 (75-99% control)
post-emergent herbicidal activity index (Canada Thistle; 5.6 kg/h): 1 (25-49% control)
post-emergent herbicidal activity index (Canada Thistle; 11.2 kg/h): 1 (25-49% control)
post-emergent herbicidal activity index (Cocklebur; Table I, 5.6 kg/h): 1 (25-49% control)
post-emergent herbicidal activity index (Cocklebur; Table I, 11.2 kg/h): 2 (50-74% control)
post-emergent herbicidal activity index (Cocklebur; Table II, 1.12 kg/h): 0 (0-24% control)
post-emergent herbicidal activity index (Cocklebur; Table II, 5.6 kg/h): 3 (75-99% control)
post-emergent herbicidal activity index (Crabgrass; 1.12 kg/h): 2 (50-74% control)
post-emergent herbicidal activity index (Crabgrass; 5.6 kg/h): 4 (100% control)
post-emergent herbicidal activity index (Downy Brome; Table I, 5.6 kg/h): 0 (0-24% control)
post-emergent herbicidal activity index (Downy Brome; Table I, 11.2 kg/h): 1 (25-49% control)
post-emergent herbicidal activity index (Downy Brome; Table II, 1.12 kg/h): 0 (0-24% control)
post-emergent herbicidal activity index (Downy Brome; Table II, 5.6 kg/h): 2 (50-74% control)
post-emergent herbicidal activity index (Hemp Sesbania): 1 (25-49% control)
post-emergent herbicidal activity index (Johnsongrass; 5.6 kg/h): 1 (25-49% control)
post-emergent herbicidal activity index (Johnsongrass; 11.2 kg/h): 2 (50-74% control)
post-emergent herbicidal activity index (Lambsquarters; Table I, 5.6 kg/h): 3 (75-99% control)
post-emergent herbicidal activity index (Lambsquarters; Table I, 11.2 kg/h): 1 (25-49% control)
post-emergent herbicidal activity index (Lambsquarters; Table II, 1.12 kg/h): 1 (25-49% control)
post-emergent herbicidal activity index (Lambsquarters; Table II, 5.6 kg/h): 3 (75-99% control)
post-emergent herbicidal activity index (Morningglory; Table I, 5.6 kg/h): 1 (25-49% control)
post-emergent herbicidal activity index (Morningglory; Table I, 11.2 kg/h): 2 (50-74% control)
post-emergent herbicidal activity index (Morningglory; Table II, 1.12 kg/h): 1 (25-49% control)
post-emergent herbicidal activity index (Morningglory; Table II, 5.6 kg/h): 2 (50-74% control)
post-emergent herbicidal activity index (Panicum Spp; 1.12 kg/h): 1 (25-49% control)
post-emergent herbicidal activity index (Panicum Spp; 5.6 kg/h): 4 (100% control)
post-emergent herbicidal activity index (Quackgrass; 5.6 kg/h): 1 (25-49% control)
post-emergent herbicidal activity index (Quackgrass; 11.2 kg/h): 2 (50-74% control)
post-emergent herbicidal activity index (Rice; 1.12 kg/h): 0 (0-24% control)
post-emergent herbicidal activity index (Rice; 5.6 kg/h): 2 (50-74% control)
post-emergent herbicidal activity index (Smartweed; Table I, 5.6 kg/h): 2 (50-74% control)
post-emergent herbicidal activity index (Smartweed; Table I, 11.2 kg/h): 2 (50-74% control)
post-emergent herbicidal activity index (Smartweed; Table II, 1.12 kg/h): 2 (50-74% control)
post-emergent herbicidal activity index (Smartweed; Table II, 5.6 kg/h): 2 (50-74% control)
post-emergent herbicidal activity index (Sorghum; 1.12 kg/h): 0 (0-24% control)
post-emergent herbicidal activity index (Sorghum; 5.6 kg/h): 2 (50-74% control)
post-emergent herbicidal activity index (Soybean; 1.12 kg/h): 0 (0-24% control)
post-emergent herbicidal activity index (Soybean; 5.6 kg/h): 2 (50-74% control)
post-emergent herbicidal activity index (Sugar Beet; 1.12 kg/h): 0 (0-24% control)
post-emergent herbicidal activity index (Sugar Beet; 5.6 kg/h): 1 (25-49% control)
post-emergent herbicidal activity index (Velvetleaf; Table I, 5.6 kg/h): 1 (25-49% control)
post-emergent herbicidal activity index (Velvetleaf; Table I, 11.2 kg/h): 1 (25-49% control)
post-emergent herbicidal activity index (Velvetleaf; Table II, 1.12 kg/h): 0 (0-24% control)
post-emergent herbicidal activity index (Velvetleaf; Table II, 5.6 kg/h): 2 (50-74% control)
post-emergent herbicidal activity index (Wheat; 1.12 kg/h): 0 (0-24% control)
post-emergent herbicidal activity index (Wheat; 5.6 kg/h): 2 (50-74% control)
post-emergent herbicidal activity index (Wild Buckwheat; 1.12 kg/h): 0 (0-24% control)
post-emergent herbicidal activity index (Wild Buckwheat; 5.6 kg/h): 1 (25-49% control)
post-emergent herbicidal activity index (Yellow Nutsedge; 5.6 kg/h): 2 (50-74% control)
post-emergent herbicidal activity index (Yellow Nutsedge; 11.2 kg/h): 1 (25-49% control)
